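Values below derive from 48-hour exposures of cells grown in 96-well plates, with endpoints linearly interpolated between the two concentrations bracketing the appropriate inhibition level. TGI: total growth inhibition.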
Assays:
Assay in all cases: inhibition of tumour cell growth, NCI panel, 48 h
KM12 colon = system: KM12 colon
CCRF-CEM leukemia = system: CCRF-CEM leukemia
SR leukemia = system: SR leukemia
NCI-H23 lung = system: NCI-H23 lung
SF-539 CNS = system: SF-539 CNS
RXF 393 renal = system: RXF 393 renal
SW-620 colon = system: SW-620 colon
MDA-MB-435 = system: MDA-MB-435
SK-MEL-2 melanoma = system: SK-MEL-2 melanoma
SK-MEL-28 melanoma = system: SK-MEL-28 melanoma
HOP-62 NSCLC = system: HOP-62 NSCLC
UACC-257 melanoma = system: UACC-257 melanoma
RPMI-8226 leukemia = system: RPMI-8226 leukemia
LOX IMVI melanoma = system: LOX IMVI melanoma
HCC-2998 colon = system: HCC-2998 colon
HS 578T breast = system: HS 578T breast
MOLT-4 leukemia = system: MOLT-4 leukemia
BT-549 breast = system: BT-549 breast
SNB-19 CNS = system: SNB-19 CNS
HT29 colon = system: HT29 colon
OVCAR-5 ovarian = system: OVCAR-5 ovarian
NCI-H522 lung = system: NCI-H522 lung
SF-268 CNS = system: SF-268 CNS
NCI-H460 lung = system: NCI-H460 lung
OVCAR-3 ovarian = system: OVCAR-3 ovarian
TK-10 renal = system: TK-10 renal
HCT-116 colon = system: HCT-116 colon
COLO 205 colon = system: COLO 205 colon
UACC-62 melanoma = system: UACC-62 melanoma
UO-31 renal = system: UO-31 renal
SNB-75 CNS = system: SNB-75 CNS
786-0 renal = system: 786-0 renal
M14 melanoma = system: M14 melanoma
MDA-MB-231 breast = system: MDA-MB-231 breast
OVCAR-8 ovarian = system: OVCAR-8 ovarian
SN12C renal = system: SN12C renal
EKVX NSCLC = system: EKVX NSCLC
K-562 leukemia = system: K-562 leukemia
IGROV1 ovarian = system: IGROV1 ovarian
MDA-N = system: MDA-N
MCF7 breast = system: MCF7 breast
ACHN renal = system: ACHN renal
DU-145 prostate = system: DU-145 prostate
MALME-3M melanoma = system: MALME-3M melanoma
HL-60(TB) leukemia = system: HL-60(TB) leukemia
U251 CNS = system: U251 CNS
HCT-15 colon = system: HCT-15 colon
SK-MEL-5 melanoma = system: SK-MEL-5 melanoma
PC-3 prostate = system: PC-3 prostate
SF-295 CNS = system: SF-295 CNS
A549 NSCLC = system: A549 NSCLC
NCI/ADR-RES ovarian = system: NCI/ADR-RES ovarian
OVCAR-4 ovarian = system: OVCAR-4 ovarian
A498 renal = system: A498 renal
CAKI-1 renal = system: CAKI-1 renal
NCI-H226 lung = system: NCI-H226 lung
HOP-92 NSCLC = system: HOP-92 NSCLC
T-47D breast = system: T-47D breast
SK-OV-3 ovarian = system: SK-OV-3 ovarian

CC(=O)CCC(=O)C(=[N+]=[N-])S(=O)(=O)c1ccccc1 gave a TGI (KM12 colon) of over 100 µM, a TGI (CCRF-CEM leukemia) of over 100 µM and a TGI (SR leukemia) of over 100 µM. It also gave a TGI (NCI-H23 lung) of over 100 µM, a TGI (SF-539 CNS) of over 100 µM and a TGI (RXF 393 renal) of over 100 µM. It also gave a TGI (SW-620 colon) of over 100 µM, a TGI (MDA-MB-435) of over 100 µM and a TGI (SK-MEL-2 melanoma) of over 100 µM. The TGI (SK-MEL-28 melanoma) was over 100 µM, the TGI (HOP-62 NSCLC) was over 100 µM and the TGI (UACC-257 melanoma) was over 100 µM. The TGI (RPMI-8226 leukemia) was over 100 µM, the TGI (LOX IMVI melanoma) was over 100 µM and the TGI (HCC-2998 colon) was over 100 µM. It also gave a TGI (HS 578T breast) of over 100 µM, a TGI (MOLT-4 leukemia) of over 100 µM and a TGI (BT-549 breast) of over 100 µM. For the same compound, the TGI (SNB-19 CNS) was over 100 µM, the TGI (HT29 colon) was over 100 µM and the TGI (OVCAR-5 ovarian) was over 100 µM. The TGI (NCI-H522 lung) was over 100 µM, the TGI (SF-268 CNS) was over 100 µM and the TGI (NCI-H460 lung) was over 100 µM. It also gave a TGI (OVCAR-3 ovarian) of over 100 µM, a TGI (TK-10 renal) of over 100 µM and a TGI (HCT-116 colon) of over 100 µM. For the same compound, the TGI (COLO 205 colon) was over 100 µM, the TGI (UACC-62 melanoma) was over 100 µM and the TGI (UO-31 renal) was over 100 µM. For the same compound, the TGI (SNB-75 CNS) was over 100 µM, the TGI (786-0 renal) was over 100 µM and the TGI (M14 melanoma) was over 100 µM. It also gave a TGI (MDA-MB-231 breast) of over 100 µM, a TGI (OVCAR-8 ovarian) of over 100 µM and a TGI (SN12C renal) of over 100 µM. It also gave a TGI (EKVX NSCLC) of over 100 µM, a TGI (K-562 leukemia) of over 100 µM and a TGI (IGROV1 ovarian) of over 100 µM. It also gave a TGI (MDA-N) of over 100 µM, a TGI (MCF7 breast) of over 100 µM and a TGI (ACHN renal) of over 100 µM. It also gave a TGI (DU-145 prostate) of over 100 µM, a TGI (MALME-3M melanoma) of over 100 µM and a TGI (HL-60(TB) leukemia) of over 100 µM. It also gave a TGI (U251 CNS) of over 100 µM, a TGI (HCT-15 colon) of over 100 µM and a TGI (SK-MEL-5 melanoma) of over 100 µM. It also gave a TGI (PC-3 prostate) of over 100 µM, a TGI (SF-295 CNS) of over 100 µM and a TGI (A549 NSCLC) of over 100 µM. For the same compound, the TGI (NCI/ADR-RES ovarian) was over 100 µM.

Work on COc1cc(/C=C/C(=O)OC2C(O)C3CC(OC(=O)c4cc(OC)c(OC)c(OC)c4)CC2N3C)cc(OC)c1OC (configuration not stated) yielded a TGI (KM12 colon) of over 50 µM, a TGI (CCRF-CEM leukemia) of over 50 µM and a TGI (OVCAR-4 ovarian) of over 50 µM. The TGI (SR leukemia) was 33.3 µM, the TGI (NCI-H23 lung) was over 50 µM and the TGI (A498 renal) was 17.7 µM. For the same compound, the TGI (SF-539 CNS) was over 50 µM, the TGI (RXF 393 renal) was over 50 µM and the TGI (CAKI-1 renal) was over 50 µM. The TGI (SW-620 colon) was over 50 µM, the TGI (MDA-MB-435) was over 50 µM and the TGI (SK-MEL-2 melanoma) was over 50 µM. The TGI (HOP-62 NSCLC) was over 50 µM, the TGI (UACC-257 melanoma) was over 50 µM and the TGI (RPMI-8226 leukemia) was over 50 µM. For the same compound, the TGI (LOX IMVI melanoma) was over 50 µM, the TGI (HCC-2998 colon) was over 50 µM and the TGI (MOLT-4 leukemia) was over 50 µM. It also gave a TGI (BT-549 breast) of over 50 µM, a TGI (NCI-H226 lung) of over 50 µM and a TGI (SNB-19 CNS) of 39.9 µM. It also gave a TGI (HT29 colon) of over 50 µM, a TGI (OVCAR-5 ovarian) of over 50 µM and a TGI (NCI-H522 lung) of over 50 µM. For the same compound, the TGI (SF-268 CNS) was over 50 µM, the TGI (NCI-H460 lung) was over 50 µM and the TGI (HOP-92 NSCLC) was over 50 µM. It also gave a TGI (OVCAR-3 ovarian) of over 50 µM, a TGI (TK-10 renal) of over 50 µM and a TGI (HCT-116 colon) of over 50 µM. The TGI (COLO 205 colon) was 42.5 µM, the TGI (T-47D breast) was 43.7 µM and the TGI (UACC-62 melanoma) was over 50 µM. For the same compound, the TGI (UO-31 renal) was over 50 µM, the TGI (SNB-75 CNS) was over 50 µM and the TGI (786-0 renal) was over 50 µM. For the same compound, the TGI (M14 melanoma) was over 50 µM, the TGI (MDA-MB-231 breast) was over 50 µM and the TGI (OVCAR-8 ovarian) was over 50 µM. It also gave a TGI (SN12C renal) of over 50 µM, a TGI (EKVX NSCLC) of over 50 µM and a TGI (K-562 leukemia) of over 50 µM. The TGI (IGROV1 ovarian) was 39.8 µM, the TGI (MDA-N) was over 50 µM and the TGI (MCF7 breast) was over 50 µM. The TGI (SK-OV-3 ovarian) was over 50 µM, the TGI (ACHN renal) was over 50 µM and the TGI (DU-145 prostate) was over 50 µM. It also gave a TGI (U251 CNS) of over 50 µM, a TGI (HCT-15 colon) of over 50 µM and a TGI (SK-MEL-5 melanoma) of over 50 µM. For the same compound, the TGI (PC-3 prostate) was over 50 µM, the TGI (SF-295 CNS) was over 50 µM and the TGI (A549 NSCLC) was over 50 µM. The TGI (NCI/ADR-RES ovarian) was over 50 µM.

Reference: PubChem BioAssay (NCI)
